Publication PMC8611018, “Apelin-13 in septic shock: effective in supporting hemodynamics in sheep but compromised by enzymatic breakdown in patients” (Scientific Reports, 2021)

Columns and labels:
[1] = Apelinergic stability in human plasma; assay type: in vitro ADME; details: 27 μL plasma + 6 μL 1 mM aqueous peptide, 37 °C, 0, 0.5, 1, 2, 4, 6 h, UPLC-MS, mean ± SEM
Protocol: (§1) Additional extraction on […] column (Phenomenex, Torrance, CA, USA) with overnight freeze-drying was mandatory for samples used for ELA measurements. […] LS-F25717; […] ELA was quantified using a commercially available ELISA kit (Peninsula Laboratories International; S-1508; CA, USA) with a measurement range of 0-100 ng/mL. […] Proteolytic degradation was stopped by adding 140 μL of 50% acetonitrile, 50% ethanol, and 0.25 mM N, N-dimethylbenzamide at 0, 0.5, 1, 2, 4, or 6 h. […] Next, the reaction mixture was diluted with 80 μL of water and analyzed overnight with an Acquity class H ultra-performance liquid chromatography-mass spectrometry (UPLC-MS) system from Waters (Milford, MA, USA) (column: Acquity UPLC CSH C18, 2.1 mm × 50 mm, packed with 1.7 μm particles). Results were expressed as a percentage of the initial zero-time spike area.

sheep APJ [2] = assay: BRET assay for β-arrestin-2 recruitment in HEK293 cells expressing sheep APJ; assay type: cell-based, sheep (Ovis aries); details: BRET2, HEK293 cells with sheep APJ, 30 min stimulation at 37 °C, n = 3
Protocol: (§2) BRET experiments were performed as previously described. In brief, HEK293 cells were transfected with plasmids encoding sheep APJ, Gαi1-RlucII ([…]β1 (from cDNA.org) (for the BRET-based Gαi1 activation assay) or encoding sheep APJ-GFP10 and RlucII-β-arrestin2 (for the BRET-based β-arrestin-2 recruitment assay)[50]. To perform the BRET assays, 50,000 cells/well were transferred into white 96-well plates (BD Bioscience, Mississauga, Canada) and incubated at 37 °C overnight. […] After stimulation, 5 μM coelenterazine 400A was added to each well, and the plate was read on a GeniosPro plate reader using the BRET2 filter set (Tecan, Austria). The BRET2 ratio was calculated as […].

sheep APJ [3] = assay: BRET assay for Gαi1 activation in HEK293 cells expressing sheep APJ; assay type: cell-based, sheep (Ovis aries); details: BRET2, HEK293 cells with sheep APJ, 5 min stimulation at 37 °C, n = 3
Protocol: as §2

healthy sheep = assay: Hemodynamic and diuretic dose-response to infusion in healthy sheep; assay type: in vivo
Protocol: This study was approved by our institutional ethics review board (CFPA: Comité Facultaire de Protection des Animaux, #023-18BR). Thirty-six male Canadian Arcott sheep (33 ± 3 kg, 3 to 4 months old;) were included in this study according to the Animal Research: Reporting of In Vivo Experiments (ARRIVE) guidelines and received care in compliance with the Canadian Council of Animal Care and National Institutes of Health (NIH) guidelines. Animals were housed for at least 48 h before the experiment in dedicated accommodations and bedding.
(§3) The day before surgery, autologous stool was retrieved for treatment of the sheep selected for fecal peritonitis induction and mixed overnight in 0.9% normal saline (NS) and 5% D-glucose at 37 °C. The animals were fasted overnight. On the morning of the day of surgery, sheep received premedication to ease animal handling and intubation (i.e., intramuscular injections of 0.1 mg/kg atropine and 10 mg/kg ketamine) before routing to the operating room for insertion of an external jugular vein catheter and administration of a 500 mL bolus of Ringer’s lactate (RL). […]
(§4) Baseline hemodynamic parameters and vital sign measurements (HR: heart rate, MAP: mean arterial pressure, SVR: systemic vascular resistance, CVP: central venous pressure, PAOP: pulmonary artery occlusion pressure and wedge pressure), dP/dt max and min, LV end-systolic pressure (LVESP), CO, stroke volume (SV), GEDV, and extravascular lung water (EVLW) were then recorded. Blood temperature, baseline central venous O2 saturation (ScvO2), and arterial blood gas (RapidLab® 348, Siemens Healthcare Diagnostics, Montreal, Qc, Canada) and lactate levels (Lactate Plus, Nova Biomedical, Waltham, MA, USA) were also monitored. A slightly modified sheep SOFA[46] score was calculated after reached shock criteria defining the “shock” time point and before euthanasia named the “final” time points, defined as a MAP below 65 mmHg for level 1 of the cardiovascular system assessment and assuming a constant level 3 of the central nervous system (Glasgow score 6–9) at “shock”. […]

[4] = test system: sheep with fecal peritonitis-induced septic shock; assay: Hemodynamic and renal dose-response to infusion in sheep with fecal peritonitis-induced septic shock; assay type: in vivo
Protocol: as §3, with “(RL). Sheep were then continuously infused with RL (3 mL/kg/h) and 5% D-glucose (2 mL/kg/h). Tracheal intubation (7–8 Fr) was performed in a caddy under isoflurane (1–2%) mask inhalation and by an anterior approach. Sheep were then placed in the supine position on heating pads before ventilator connection (Aestiva 15, Datex-Ohmeda, USA).” for “(RL).”
as §4
After 2 g/kg autologous stool slurry was injected into both intra-peritoneal (i.p.) tubes, RL and 5% D-glucose infusions were stopped, and all the above parameters were monitored every 30 min. […]

sheep APJ [5] = assay: Competitive radioligand binding with [125I]-(pyr1)Apelin-13 on HEK293 cells expressing sheep APJ; design: species or system sheep (Ovis aries); details: HEK293 cells with HA-tagged sheep APJ, 0.2 nM [125I]-(pyr1)APLN-13, 1 h at room temperature, n = 3; human APLN-13 compared with human ELA
From the text: The sequence of the apelin receptor was synthetized with gBlocks Gene Fragments (Integrated DNA Technologies, USA) and subcloned into […]1 (a modified vector in which we replaced the YFP sequence with that for two HA tags) with an NEBuilder HiFi DNA Assembly Cloning Kit (New England Biolabs, MA, USA). The Ovis aries APJ sequence was obtained from the RefSeq database (XM_027979777.1). […] Thermo Scientific Pierce, Canada)[49]. […] The γ emission was quantified using a γ-counter 1470 Wizard from PerkinElmer (Waltham) (80% efficiency). […] All binding data were calculated and plotted using GraphPad Prism 8 (La Jolla, CA) and represent the mean ± SEM of three replicates.

[6] = Apelinergic stability in sheep plasma; assay type: in vitro ADME; details: sheep plasma of baseline and shock time points (n = 18); 27 μL plasma + 6 μL 1 mM aqueous peptide, 37 °C, 0 to 6 h, UPLC-MS
Protocol: as §1

half-life ([1]; plasma of patients with sepsis/septic shock (n = 22)): 1.15 ± 0.2 h
half-life ([1]; plasma, plasma of healthy volunteers (n = 10)): 4.3 ± 0.75 h
plasma stability (residual percentage of non-degraded peptide) [6]: unaffected
SMILES: CSCC[C@H](NC(=O)[C@@H](NC(=O)[C@H](CC(C)C)NC(=O)[C@H](CC(N)=O)NC(=O)[C@@H](NC(=O)[C@@H]1CCCN1C(=O)[C@H](CCCNC(=N)N)NC(=O)[C@@H](N)CCC(N)=O)C(C)C)[C@@H](C)O)C(=O)N[C@@H](CCCNC(=N)N)C(=O)N[C@@H](CCCNC(=N)N)C(=O)N[C@@H](CCCCN)C(=O)N[C@@H](CC(C)C)C(=O)N[C@@H](CCCNC(=N)N)C(=O)N[C@@H](CCCCN)C(=O)N[C@@H](Cc1c[nH]cn1)C(=O)N[C@@H](CC(N)=O)C(=O)N[C@H]1CSSC[C@@H](C(=O)N[C@@H](CCSC)C(=O)N2CCC[C@H]2C(=O)N[C@@H](CC(C)C)C(=O)N[C@@H](Cc2c[nH]cn2)C(=O)N[C@@H](CO)C(=O)N[C@@H](CCCNC(=N)N)C(=O)N[C@H](C(=O)N2CCC[C@H]2C(=O)N[C@@H](Cc2ccccc2)C(=O)N2CCC[C@H]2C(=O)O)C(C)C)NC(=O)[C@H](CCCNC(=N)N)NC(=O)[C@H](CCCNC(=N)N)NC(=O)[C@H](CCC(N)=O)NC(=O)[C@H](CC(C)C)NC1=O [ELA, Elabela]
potency and efficacy in β-arrestin-2 recruitment, compared with APLN-13 (sheep APJ [2]): lower potency and efficacy
potency in Gαi1 activation, compared with APLN-13 (sheep APJ [3]): lower potency
mean arterial pressure (MAP) (healthy sheep; 6.25 nMol/kg/h, mean ± SEM, n = 6/group): 65.4 ± 8.1 mmHg
systemic vascular resistance (healthy sheep; incremental doses 0.025 to 12.5 nmol/kg/h): not significantly impacted
heart rate (HR) and global end-diastolic volume (GEDV) (healthy sheep; incremental doses 0.025 to 12.5 nmol/kg/h, PiCCO): unchanged
cardiac output (CO) ([4]; septic sheep after fluid resuscitation, 2.5 nMol/kg/h, mean ± SEM, n = 6/group): 2.71 ± 0.41 L/min
endpoint circulating levels of lactate, cortisol and Tn T ([4]; septic sheep, at the end of the last d5 infusion, n = 6/group): neither APLN-13 nor ELA infusion impacted
FP-induced decreases of monitored hemodynamic parameters ([4]; septic sheep, incremental doses 0.025 to 12.5 nmol/kg/h): failed to alleviate these decreases
affinity for sheep APJ (sheep APJ [5]): similar
